According to patent US10487054B2, “Therapeutic compounds” (REGENTS OF THE UNIVERSITY OF MINNESOTA, priority 2017, dated 2019):

Columns and labels:
[1] = molecular target: T1, active TOPK (Homo sapiens, UniProt Q96KB5); experiment: In vitro kinase assay ([γ-32P] ATP, autoradiography); format: biochemical; conditions: 0.5, 1, 3 or 5 μM
T1 construct: purchased SignalChem (Richmond, BC, Canada)
T1 sequence (Q96KB5 1-322): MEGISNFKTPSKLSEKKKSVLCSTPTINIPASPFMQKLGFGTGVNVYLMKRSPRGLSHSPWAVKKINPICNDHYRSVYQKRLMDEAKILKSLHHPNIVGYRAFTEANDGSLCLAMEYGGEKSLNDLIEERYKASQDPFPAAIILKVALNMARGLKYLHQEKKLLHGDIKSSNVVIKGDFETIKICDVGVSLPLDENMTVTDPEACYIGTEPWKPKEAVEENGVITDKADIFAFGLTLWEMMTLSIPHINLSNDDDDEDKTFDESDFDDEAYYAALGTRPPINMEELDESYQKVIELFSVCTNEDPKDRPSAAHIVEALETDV
Procedure: (§1) Active TOPK (200 ng) was incubated with different concentrations of ATP (0, 10 or 100 μM) and then mixed with compound 1-conjugated Sepharose 4B beads or Sepharose 4B beads. Proteins were pulled down and analyzed by Western blot. Data are representative of 3 independent experiments that gave similar results. FIGS. 2C and 2D show compound 1 binds to either TOPK (2C) or MEK1/2 (2D) ex vivo. Lysates from HaCaT cells (500 μg) were incubated with compound 1-conjugated Sepharose 4B beads or Sepharose 4B beads alone and the pulled-down proteins were analyzed by Western blot. Data are representative of 3 independent experiments that gave similar results. FIGS. 2E and 2F show compound 1 inhibits TOPK kinase (2E) activity but not MEK1 kinase (2F) activity in vitro. Active TOPK (200 ng) was mixed with compound 1 (0, 0.5, 1, 3, or 5 μM) or HI-032 (TOPK inhibitor, 10 μM) and then incubated with a [γ-^32P] ATP mixture. Similarly, MEK1 (200 ng) was mixed with compound 1 (0, 0.5, 1, 3, 5, or 10 μM) or PD098059 (MEK1 inhibitor, 5 μM) and then incubated with a [γ-^32P] ATP mixture. For 2E and 2F, the results are visualized by autoradiography and Coomassie blue staining serves as a loading control. […]
(§2) The in vitro kinase assay was conducted according to the instructions provided by Millipore (Billerica, Mass.). […] The relative amounts of incorporated radioactivity were assessed by autoradiography.

[2] = molecular target: T2, MEK1 (Homo sapiens, UniProt Q02750); experiment: as above; format: biochemical; conditions: 0.5, 1, 3, 5 or 10 μM
T2 construct: purchased Millipore (Billerica, Mass.)
T2 sequence (Q02750 whole entry): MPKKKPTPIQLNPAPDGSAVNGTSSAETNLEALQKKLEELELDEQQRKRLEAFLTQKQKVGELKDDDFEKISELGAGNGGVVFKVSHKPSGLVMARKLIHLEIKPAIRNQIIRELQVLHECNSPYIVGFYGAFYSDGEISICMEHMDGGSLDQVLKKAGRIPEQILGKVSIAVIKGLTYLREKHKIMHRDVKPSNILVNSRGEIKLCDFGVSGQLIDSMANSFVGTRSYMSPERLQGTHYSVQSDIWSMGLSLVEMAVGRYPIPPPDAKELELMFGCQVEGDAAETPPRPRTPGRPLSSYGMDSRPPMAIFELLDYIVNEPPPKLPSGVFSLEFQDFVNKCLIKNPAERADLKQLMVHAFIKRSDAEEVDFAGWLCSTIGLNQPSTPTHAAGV
Procedure: as §1, §2

O=C1Nc2ccc(C34CC5CC(CC(C5)C3)C4)cc2C1=NO [compound 1, 5-(adamantan-1-yl)-3-(hydroxyimino)indolin-2-one]
TOPK kinase activity [1]: effectively inhibited | MEK1 kinase activity [2]: but not MEK1 activity
